Tests used:
HEPG2 = assay: Viability assay (CellTiter-Glo), HEPG2; format: cell-based, human; details: 120 μM, CellTiter-Glo
Procedure: (§1) The screen identified several compounds that reduced NO in activated microglia and macrophages. The tested compounds included achiral and chiral imidazodiazepines and benzodiazepines. In general, microglia were more sensitive to compound treatment with more pronounced reduction of NO than macrophages. […] Cell viability assays with HEK293 (kidney) and HepG2 (liver) cells were conducted in a concentration dependent manner. A limited number of compounds, such as GL-III-63, GL-III-76A, and GL-III-77, were toxic at 120 μM.
(§2) Viability assay. Human liver hepatocellular carcinoma (HEPG2) and human embryonic kidney 293T (HEK293T) cell lines were purchased (ATCC) and cultured in 75 cm^2 flasks (CellStar). Cells were grown in DMEM/High Glucose (Hyclone, #SH3024301) media to which non-essential amino acids (Hyclone, #SH30238.01), 10 mM HEPES (Hyclone, #SH302237.01), 5×10^6 units of penicillin and streptomycin (Hyclone, #SV30010), and 10% of heat inactivated fetal bovine serum (Gibco, #10082147) were added. Cells were harvested using 0.05% Trypsin (Hyclone, #SH3023601), washed with PBS, and dispensed into sterile white, optical bottom 384-well plates (NUNC, #142762). After three hours, small molecule DMSO solutions were transferred with a Tecan Freedom EVO liquid handling system equipped with a 100 nL pin tool (V&P Scientific). The controls were 3-dibutylamino-1-(4-hexyl-phenyl)-propan-1-one (25 mM in DMSO, positive control) and DMSO (negative control). The cells were incubated for 48 hours followed by the addition of CellTiter-Glo™, a luminescence-based cell viability assay (Promega, Madison, WI). All luminescence readings were performed on a Tecan Infinite M1000 plate reader. The assay was carried out in quadruplet with two independent runs. The data were analyzed by nonlinear regression.

RAW macrophages [1] = assay: Cell viability (CellTiter-Glo), RAW macrophages; format: cell-based, mouse; details: CellTiter-Glo
HEK293 = assay: Viability assay (CellTiter-Glo), HEK293; format: cell-based, human; details: 120 μM, CellTiter-Glo
Procedure: as §1, §2

Mouse microglia [2] = assay: Cell viability (CellTiter-Glo), mouse microglia; format: cell-based; details: 50 μM, CellTiter-Glo
Procedure: (§3) Next, a library of GABAAR ligands was investigated to identify compounds that reduce the production of NO as a marker of anti-inflammatory activity. […] NO was quantified with a Greiss assay. Cell viability was determined with CellTiter-Glo.
(§4) Nitric oxide production (Griess assay) and viability assay (CellTiter-Glo). 80 μL of mouse microglia culture (1×10^6 cells/mL) was plated into sterile 384 well plates representing non-activated wells. The remaining culture was activated with 50 ng/ml LPS (Invivogen, NC9836) and 150 U/mL IFNγ (R&D Systems, 485MI100) and distributed into the 384 well plates. […] Assay plates were incubated for approximately 24 hours (unless otherwise noted) at 37° C., centrifuged, and 40 μL of supernatant transferred to a new plate for analysis using the Griess Assay (Promega, Madison, WI). Absorbance at 530 nm was measured using a TECAN Infinite M1000 plate reader. The remaining 40 μL containing cells was analyzed for toxicity by the CellTiter-Glo Assay (Promega, Madison, WI). Luminescence was read using a TECAN Infinite M1000 plate reader.

Mouse microglia [3] = assay: NO production (Griess assay), LPS/IFNγ-activated mouse microglia; format: cell-based
Procedure: as §3
Cell culture. A) HMC3 Microglia (CRL-3304) were maintained in treated cell culture flasks (Nunc, 156472) with EMEM (Corning, 10010CV) supplemented with 10% heat-inactivated FBS (Corning, 35011CV) and 100 U/mL penicillin and 100 μg/mL streptomycin (Hyclone, SV30010). Cultures were maintained at 37° C. and 5% CO2. When cells reached a density of 7×10^4 cells/mL, cultures were passaged with 0.25% Trypsin (Corning, 25-053-CI) and resuspended to a density no lower than 10,000 cells/mL. B) Human and mouse microglia cell lines were a gift from Dr. David Alvarez-Carbonell at Case Western Reserve University (Cleveland, OH). Microglia were cultured in cell culture treated flasks (Nunc, 156472) with DME/F12 media (Hyclone, SH30023.01) supplemented with 10% heat-inactivated FBS (Corning, 35011CV), 100 U/mL penicillin/100 μg/mL streptomycin (Hyclone, SV30010), and Normocin (Invivogen, ant-nr). Cultures were maintained at 37° C. and 5% CO2. […] Cultures were maintained at 37° C. and 5% CO2. Cells were passaged when they reached a density of approximately 3×10^6 cells/mL using cell scrapers (VWR, 10062-906) to lift cells from flask surface and resuspended at densities of approximately 500,000 cells/mL.
as §4

RAW macrophages [4] = assay: NO production (Griess assay), LPS/IFNγ-activated RAW264.7 macrophages; format: cell-based, mouse; details: for Inhibition of NO production (%) RAW macrophages 10 μM: 24 hours, 1 μM GABA, LPS/IFNγ
[5] = test system: BZR (benzodiazepine site of GABAAR); assay: GABAAR/BZR binding, rat brain homogenate with 3H-flunitrazepam; details: rat brain homogenate, 3H-flunitrazepam; for BZR %: Percent inhibition at 10,000 nM
Procedure, shortened: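 Primary screen at 10,000 nM; where displacement exceeded 50%, Ki came from nonlinear regression of concentration–response data (n=6). Radioligand was 3H-flunitrazepam at roughly Kd on rat brain homogenate, usually 90 min, room temperature, dark, with 10 μM reference compound for nonspecific binding, then filtration and scintillation counting.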

DOR (δ opioid receptor) = biological target: T1, DOR (δ opioid receptor) (Homo sapiens, UniProt P41143); assay: DOR radioligand binding ([3H]-DADLE, HEK293 cell homogenates); details: Percent inhibition at 10,000 nM; [3H]-DADLE
T1 construct: expressed in transfected cells; host or cells: HEK293
T1 sequence (P41143 whole entry): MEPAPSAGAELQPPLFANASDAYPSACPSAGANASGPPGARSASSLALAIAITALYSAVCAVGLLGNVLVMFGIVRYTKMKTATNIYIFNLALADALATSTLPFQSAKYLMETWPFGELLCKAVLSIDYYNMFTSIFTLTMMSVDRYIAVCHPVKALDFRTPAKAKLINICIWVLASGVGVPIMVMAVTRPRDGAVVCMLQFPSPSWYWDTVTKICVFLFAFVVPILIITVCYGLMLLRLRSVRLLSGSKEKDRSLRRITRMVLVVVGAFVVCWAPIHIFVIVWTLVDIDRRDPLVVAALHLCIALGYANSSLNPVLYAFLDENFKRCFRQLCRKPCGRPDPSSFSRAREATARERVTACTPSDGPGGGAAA

KOR (κ opioid receptor) = biological target: T2, KOR (κ opioid receptor) (Homo sapiens, UniProt P41145); assay: KOR radioligand binding ([3H]-U69593, HEK293 cell homogenates); details: for inhibition at 10 µM: Percent inhibition at 10,000 nM, [3H]-U69593
T2 construct: expressed in transfected cells; host or cells: HEK293 (stably transfected)
T2 sequence (P41145 whole entry): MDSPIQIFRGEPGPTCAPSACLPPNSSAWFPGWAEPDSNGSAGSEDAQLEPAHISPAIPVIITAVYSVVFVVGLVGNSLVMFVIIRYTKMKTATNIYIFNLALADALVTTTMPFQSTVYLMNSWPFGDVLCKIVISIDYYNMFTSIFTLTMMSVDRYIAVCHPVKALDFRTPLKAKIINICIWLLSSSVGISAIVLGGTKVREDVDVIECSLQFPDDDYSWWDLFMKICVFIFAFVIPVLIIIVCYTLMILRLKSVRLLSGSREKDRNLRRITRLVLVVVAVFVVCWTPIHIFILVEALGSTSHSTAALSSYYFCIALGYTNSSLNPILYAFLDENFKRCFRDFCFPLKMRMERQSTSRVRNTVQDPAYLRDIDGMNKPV

MOR (μ opioid receptor) = biological target: T3, MOR (μ opioid receptor) (Homo sapiens, UniProt P35372); assay: MOR radioligand binding ([3H]-DAMGO, HEK293 cell homogenates); details: Percent inhibition at 10,000 nM; [3H]-DAMGO
T3 construct: expressed in transfected cells; host or cells: HEK293
T3 sequence (P35372 whole entry, species assumed): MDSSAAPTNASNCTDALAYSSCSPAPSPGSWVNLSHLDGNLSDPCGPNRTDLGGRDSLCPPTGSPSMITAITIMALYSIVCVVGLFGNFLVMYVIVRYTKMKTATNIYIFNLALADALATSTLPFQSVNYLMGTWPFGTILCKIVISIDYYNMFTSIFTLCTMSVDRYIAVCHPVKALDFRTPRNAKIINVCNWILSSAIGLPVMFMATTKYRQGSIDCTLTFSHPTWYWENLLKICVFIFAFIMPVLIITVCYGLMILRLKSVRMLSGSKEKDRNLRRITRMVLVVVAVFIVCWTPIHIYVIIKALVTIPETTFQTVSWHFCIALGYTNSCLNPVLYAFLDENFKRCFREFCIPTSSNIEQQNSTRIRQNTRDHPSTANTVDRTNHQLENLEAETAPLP

Structure (SMILES)	Cell viability (%) HEPG2 120 μM (HEPG2) [%]	Cell viability (%) RAW macrophages 50 μM (RAW macrophages [1]) [%]	Cell viability (%) HEK293 120 μM (HEK293) [%]	Cell viability (%) Mouse microglia 50 μM (Mouse microglia [2]) [%]	Inhibition of NO production (%) Mouse microglia 10 μM (Mouse microglia [3]; 24 hours, 1 μM GABA, LPS/IFNγ) [%]	Inhibition of NO production (%) RAW macrophages 10 μM (RAW macrophages [4]) [%]	Inhibition of NO production (%) Mouse microglia 50 μM (Mouse microglia [3]; 50 μM, 24 hours, 1 μM GABA, LPS/IFNγ) [%]	NO production of activated microglia (in words) (Mouse microglia [3]; dexamethasone 100 nM, GABA 1 μM, MP-IV-010 50 μM, GL-II-33 in the library screen)	BZR % [5] [%]	Ki [5] [nM]	inhibition at 10 µM (DOR (δ opioid receptor)) [%]	inhibition at 10 µM (KOR (κ opioid receptor)) [%]	inhibition at 10 µM (Mouse microglia [3]; Mus musculus, Microglia, 24 h) [%]	inhibition at 10 µM (RAW macrophages [4]; Mus musculus, Macrophage, 24 h) [%]	inhibition at 10 µM (MOR (μ opioid receptor)) [%]	Ki (KOR (κ opioid receptor)) [nM]	inhibition at 50 µM (Mouse microglia [3]; Mus musculus, Microglia, 24 h) [%]
CC1N=C(c2ccccc2F)c2cc(C#C[Si](C)(C)C)ccc2-n2cnc(-c3cnco3)c21 (stereo not drawn) [GL-III-72]	100 ± 3	77 ± 4	64 ± 8	100 ± 10	21 ± 7	57 ± 7	–	–	–	–	–	–	–	–	–	–	–
C#Cc1ccc2c(c1)C(c1ccccc1F)=N[C@@H](C)C(=O)N2 [GL-I-64]	100 ± 9	100 ± 5	77 ± 13	81 ± 5	24 ± 3	3 ± 3	–	–	–	–	–	–	–	–	–	–	–
C#Cc1ccc2c(c1)C(c1ccccn1)=N[C@H](C)C(=O)N2 [GL-III-27]	77 ± 7	100 ± 4	91 ± 2	86 ± 8	29 ± 8	1 ± 3	–	–	–	–	–	–	–	–	–	–	–
C#Cc1ccc2c(c1)C(c1ccccn1)=NC(C)c1c(-c3nc(C)no3)ncn1-2 (stereo not drawn) [GL-II-33]	–	100 ± 7	–	100 ± 4	–	–	0 ± 3	did not reduce NO production	–	–	–	–	–	–	–	–	–
C#Cc1ccc2c(c1)C(c1ccccn1)=N[C@H](C)c1c(C(=O)OC)ncn1-2 [GL-II-32]	–	100 ± 4	80 ± 6	95 ± 8	–	–	–	–	63	1430	0	35	7 ± 2	6 ± 3	32	–	–
C#Cc1ccc2c(c1)C(c1ccccn1)=NCc1c(C(=O)O)ncn1-2 [GL-III-13]	100 ± 10	100 ± 9	74 ± 5	92 ± 9	–	0 ± 2	–	–	–	–	–	–	–	–	–	–	–
C#Cc1ccc2c(c1)C(c1ccccn1)=NCC(=O)N2 [GL-III-58]	100 ± 5	100 ± 14	89 ± 2	83 ± 4	48 ± 4	–	–	–	–	–	–	–	–	–	–	–	–
C#Cc1ccc2c(c1)C(c1ccccn1)=N[C@H](C)c1c(-c3nc(CC)no3)ncn1-2 [GL-II-54]	–	100 ± 8	–	95 ± 3	–	–	–	–	66	2040	0	80	–	–	0	504	0

Source: patent publication US20240279232A1, “USE OF SUBSTITUTED 5-(4-METHYL-6-PHENYL-4H-BENZO[F]IMIDAZO[1,5-A][1,4] DIAZEPIN-3-YL)-1,2,4-O[…] THE TREATMENT OF INFLAMMATORY CONDITIONS” (priority 2021, published 2024)
